Data published in ChEMBL document CHEMBL4627407, “Identification of a Potent Oridonin Analogue for Treatment of Triple-Negative Breast Cancer” (J Med Chem, 2020).
Active and inactive are the calls of the source. No cut-off for these calls is given here.

Assays:
[1] = Toxicity in ICR mouse assessed as induction of morphological changes in spleen at 25 mg/kg, iv administered once per day for 23 consecutive days; assay type: organism-based; settings: in vivo
HCC1806 [2] = experiment: Induction of cell cycle arrest in human HCC1806 cells assessed as accumulation at G1 phase at 100 nM after 48 hrs by propidium iodide staining based FACScan flow cytometry (reference value: 70.74%); assay type: functional
HCC1806 [3] = experiment: Induction of cell cycle arrest in human HCC1806 cells assessed as accumulation at G2/M phase at 50 nM after 48 hrs by propidium iodide staining based FACScan flow cytometry (reference value: 10.38%); assay type: functional
HCC1806 [4] = experiment: Induction of apoptosis in human HCC1806 cells assessed as early apoptotic cells at 50 uM after 48 hrs by Annexin V-FITC/propidium iodide double staining based flow cytometry (reference value: 2.16%); assay type: functional
[5] = Inhibition of PI3K/Akt/mTOR signalling pathway in human HCC1806 cells assessed as reduction in phosphorylated PI3K expression at Y458 residue after 48 hrs by Western blot analysis; assay type: cell-based
HCC1806 [6] = experiment: Antitumor activity against human HCC1806 cells in ICR mouse assessed as reduction in tumor weight at 25 mg/kg, iv administered once per day for 23 consecutive days and measured every 2 days relative to control; assay type: functional; design: scale not given: the % may be the effect or the level left
[7] = Toxicity in ICR mouse assessed as induction of morphological changes in kidney at 25 mg/kg, iv administered once per day for 23 consecutive days; assay type: organism-based; settings: in vivo
HCC1806 [8] = experiment: Antitumor activity against human HCC1806 cells in ICR mouse assessed as increase in apoptosis in tumor at 12.5 to 25 mg/kg, iv administered once per day for 23 consecutive days by TUNEL based immunohistochemical analysis; assay type: functional, organism-based
HCC1806 [9] = experiment: Induction of cell cycle arrest in human HCC1806 cells assessed as downregulation of cdc2 expression by western blot analysis; assay type: functional, cell-based
[10] = Toxicity in ICR mouse assessed as induction of morphological changes in heart at 25 mg/kg, iv administered once per day for 23 consecutive days; assay type: organism-based; settings: in vivo
HCC1806 [11] = experiment: Antimigratory activity against human HCC1806 cells assessed as reduction in MMP9 expression at 50 to 200 nM after 48 hrs by Western blot analysis; assay type: functional, cell-based
HCC1806 [12] = experiment: Induction of cell death in human HCC1806 cells at 200 nM incubated for 72 hrs in presence of necroptosis inhibitor necrostatin-1 by MTT assay; assay type: functional, cell-based
HCC1806 [13] = experiment: Induction of apoptosis in human HCC1806 cells assessed as viable cells at 50 uM after 48 hrs by Annexin V-FITC/propidium iodide double staining based flow cytometry (reference value: 95.7%); assay type: functional; settings: HCC1806, 48 h, read-out: Activity
HCC1806 [14] = experiment: Inhibition of cell invasion in human HCC1806 cells at 100 to 200 nM incubated for 48 hrs by crystal violet staining based matrigel coated transwell assay; assay type: functional
HCC1806 [15] = experiment: Induction of cell cycle arrest in human HCC1806 cells assessed as accumulation at G1 phase at 200 nM after 48 hrs by propidium iodide staining based FACScan flow cytometry (reference value: 70.74%); assay type: functional
DU-4475 = experiment: Antiproliferative activity against human DU4475 cells after 72 hrs by MTT assay; assay type: functional, cell-based; settings: DU-4475, 72 h
[16] = Toxicity in ICR mouse assessed as induction of morphological changes in lung at 25 mg/kg, iv administered once per day for 23 consecutive days; assay type: organism-based; settings: in vivo
T47D = experiment: Antiproliferative activity against human T47D cells after 72 hrs by MTT assay; assay type: functional, cell-based
NCI/ADR-RES [17] = experiment: Antiproliferative activity against human MCF7/ADR cells after 72 hrs by MTT assay; assay type: functional, cell-based
HCC1806 [18] = experiment: Induction of cell death in human HCC1806 cells at 200 nM incubated for 72 hrs in presence of caspase inhibitor z-VAD by MTT assay; assay type: functional, cell-based
HCC1806 [19] = experiment: Induction of cell cycle arrest in human HCC1806 cells assessed as accumulation at G1 phase at 50 nM after 48 hrs by propidium iodide staining based FACScan flow cytometry (reference value: 70.74%); assay type: functional
NCI/ADR-RES [20] = experiment: Potency index, ratio of oridonin IC50 to compound IC50 for antiproliferative activity against human MCF7/ADR cells after 72 hrs by MTT assay; assay type: functional
HCC1937 = experiment: Antiproliferative activity against human HCC1937 cells after 72 hrs by MTT assay; assay type: functional, cell-based; settings: HCC1937, 72 h
[21] = Inhibition of PI3K/Akt/mTOR signalling pathway in human HCC1806 cells assessed as reduction in phosphorylated Akt expression at S473 residue after 48 hrs by Western blot analysis; assay type: cell-based
HCC1806 [22] = experiment: Induction of cell cycle arrest in human HCC1806 cells assessed as accumulation at G2/M phase at 100 nM after 48 hrs by propidium iodide staining based FACScan flow cytometry (reference value: 10.38%); assay type: functional
HCC1806 [23] = experiment: Antitumor activity against human HCC1806 cells in ICR mouse assessed as tumor shrinkage at 12.5 to 25 mg/kg, iv administered once per day for 23 consecutive days by Ki67 staining-based immunohistochemical analysis; assay type: functional, organism-based
HCC1806 [24] = experiment: Induction of cell cycle arrest in human HCC1806 cells assessed as increase in accumulation at G2/M phase after 48 hrs by propidium iodide staining based FACScan flow cytometry; assay type: functional
HCC1806 [25] = experiment: Induction of apoptosis in human HCC1806 cells assessed as late apoptotic cells at 100 uM after 48 hrs by Annexin V-FITC/propidium iodide double staining based flow cytometry (reference value: 0.81%); assay type: functional
HCC1806 [26] = experiment: Induction of intracellular reactive oxygen species generation in human HCC1806 cells incubated for 48 hrs by DCFH2-DA staining based flow cytometeric analysis; assay type: functional, cell-based
HCC1806 [27] = experiment: Induction of apoptosis in human HCC1806 cells assessed as necrotic cells at 200 uM after 48 hrs by Annexin V-FITC/propidium iodide double staining based flow cytometry (reference value: 1.32%); assay type: functional
HCC1806 [28] = experiment: Induction of intracellular reactive oxygen species generation in human HCC1806 cells assessed as accumulation of DCFH2-DA positive cells at 200 nM incubated for 48 hrs by flow cytometeric analysis (reference value: 3.53%); assay type: functional
HCC1806 [29] = experiment: Antitumor activity against human HCC1806 cells in ICR mouse assessed as increase in apoptosis in tumor at 12.5 to 25 mg/kg, iv administered once per day for 23 consecutive days by hematoxylin and eosin staining based histopathological assay; assay type: functional, organism-based
HCC1806 [30] = experiment: Induction of apoptosis in human HCC1806 cells assessed as viable cells at 200 uM after 48 hrs by Annexin V-FITC/propidium iodide double staining based flow cytometry (reference value: 95.7%); assay type: functional; settings: HCC1806, 48 h, read-out: Activity
HCC1806 [31] = experiment: Inhibition of cell adhesion in human HCC1806 cells incubated for 48 hrs by phase contrast microscopy; assay type: functional, cell-based
HCC1806 [32] = experiment: Antitumor activity against human HCC1806 cells in ICR mouse assessed as reduction in tumor weight at 12.5 mg/kg, iv administered once per day for 23 consecutive days and measured every 2 days relative to control; assay type: functional; design: scale not given: the % may be the effect or the level left
HCC1806 [33] = experiment: Antimigratory activity in human HCC1806 cells assessed as reduction in integrin beta1 level after 48 hrs by Western blot analysis; assay type: functional, cell-based

Question: Which results are given for C=C1C(=O)[C@@]23C(=O)[C@@H]4OC[C@]5(C=CCC(C)(C)[C@@H]45)[C@@H]2CC[C@@H]1[C@H]3OC(=O)/C=C/c1ccncc1?
Answer: Activity [1]: Non-Toxic; Activity (HCC1806 [2]): 60.61%; Activity (HCC1806 [3]): 15.94%; Activity (HCC1806 [4]): 14.87%; inhibition [5]: Dose-dependent effect; Activity (HCC1806 [6]): 74.1%; Activity [7]: Non-Toxic; Activity (HCC1806 [8]): Active; Activity (HCC1806 [9]): Dose-dependent effect; Activity [10]: Non-Toxic; Activity (HCC1806 [11]): Active; Activity (HCC1806 [12]): Active; viability at 50 µM (HCC1806 [13]): 82.2%; inhibition (HCC1806 [14]): Active; Activity (HCC1806 [15]): 54.97%; IC50 (DU-4475): 210 nM; Activity [16]: Non-Toxic; IC50 (T47D): 560 nM; IC50 (NCI/ADR-RES [17]): 1380 nM; Activity (HCC1806 [18]): inactive; Activity (HCC1806 [19]): 65.83%; Ratio IC50 (NCI/ADR-RES [20]): 20; IC50 (HCC1937): 280 nM; inhibition [21]: Dose-dependent effect; Activity (HCC1806 [22]): 20.26%; Activity (HCC1806 [23]): Active; Activity (HCC1806 [24]): Dose-dependent effect; Activity (HCC1806 [25]): 3.61%; Activity (HCC1806 [26]): Dose-dependent effect; Activity (HCC1806 [27]): 4.32%; Activity (HCC1806 [28]): 45.87%; Activity (HCC1806 [29]): Active; viability at 200 µM (HCC1806 [30]): 50.4%; inhibition (HCC1806 [31]): Dose-dependent effect; Activity (HCC1806 [32]): 67.3%; Activity (HCC1806 [33]): Dose-dependent effect
